Measurements published in ChEMBL document CHEMBL5727676, “Bromodomain inhibitors” (2020).

Legend:
[1] = biological target: T1, Bromodomain-containing protein 4 (Homo sapiens, UniProt O60885); test: (§1) TR-FRET Assay: Compound dilution series were prepared in DMSO via an approximately 3-fold serial dilution. Compound dilutions were added directly into white, low-volume assay plates (Perkin Elmer Proxiplate 384 Plus#6008280) using a Labcyte Echo in conjunction with Labcyte Access and Thermo Multidrop CombinL robotics. Compounds were then suspended in eight microliters (μL) of assay buffer (20 mM Sodium Phosphate, pH 6.0, 50 mM NaCl, 1 mM Ethylenediaminetetraacetic acid disodium salt dihydrate, 0.01% Triton X-100, 1 mM DL-Dithiothreitol) containing His-tagged bromodomain, Europium-conjugated anti-His antibody (Invitrogen PV5596) and Alexa-647-conjugated probe.The final concentration of 1× assay mixture contained 2% DMSO, 12 nM His tagged BRD4 (BDI_K57-E168) and 100 nM probe or 4 nM His tagged BRD4 (BDII_E352-M457) and 30 nM probe, and 1 nM Europium-conjugated anti-His-tag antibody, and compound concentrations in the range of: 49.02 μM-0.61 nM or 0.98 μM-0.15 nM.After a one-hour equilibration at room temperature, TR-FRET ratios were determined using an Envision multilabel plate reader (Ex 340, […]).
[2] = biological target: T1, Bromodomain-containing protein 4; test: as §1; remark: listed apart in the source

Row | Ki [1] [µM] | Ki [2] [µM] | Compound
1 | 6.69 | 0.0066 | Cc1cccc(C)c1Oc1ccc(C(C)(O)CC(C)C)cc1-c1cn(C)c(=O)c2[nH]c(C(=O)NC(C)(C)C)cc12 (centres undefined)
2 | 1.77 | 0.0074 | Cc1cc(F)cc(Cl)c1Oc1ccc(C(C)(C)O)cc1-c1cn(C)c(=O)c2[nH]c(C(=O)NC3(C)CC3(F)F)cc12 (centres undefined)
